According to the supplement of paper PMC10307832:

How the values were obtained:
Experiment in all cases: relative viability (nuclei count vs DMSO), 5 days (fraction); higher = more cells survive
[1] = compound: COC1=CC=C(C=C1)CN2C=CC3=C2C=C(C=C3)C(=O)NO + Cc1nc(NC(=O)N2CCC[C@H]2C(N)=O)sc1-c1ccnc(C(C)(C)C(F)(F)F)c1 [Alpelisib] (partner 2 µM)
Summary of the method: (§1)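 Five library-drug doses in √10 steps were combined with a fixed anchor-drug dose, or a single drug was given alone, by pin tool to lung cancer cell lines in 1536-well plates the day after seeding. Nuclei were stained and counted after 5 days. Relative viability is the nuclei count in treated wells over that in vehicle wells, taken as the median of duplicate plates.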

Veliparib + Linsitinib = compound: C[C@]1(c2nc3c(C(N)=O)cccc3[nH]2)CCCN1 [Veliparib] + C[C@]1(O)C[C@@H](c2nc(-c3ccc4ccc(-c5ccccc5)nc4c3)c3c(N)nccn32)C1 [Linsitinib] (partner 1 µM)
Summary of the method: as §1

Veliparib + Dasatinib = compound: C[C@]1(c2nc3c(C(N)=O)cccc3[nH]2)CCCN1 [Veliparib] + Cc1nc(Nc2ncc(C(=O)Nc3c(C)cccc3Cl)s2)cc(N2CCN(CCO)CC2)n1 [Dasatinib] (partner 0.075 µM)
Summary of the method: as §1

[2] = compound: COC1=CC=C(C=C1)CN2C=CC3=C2C=C(C=C3)C(=O)NO + O=C(CCCCCCC(=O)Nc1ccccc1)NO [Vorinostat] (partner 1 µM)
Summary of the method: as §1

## SW 1573
[1]; first compound 0.253 µM
  relative viability: 0.824
[1]; first compound 0.8 µM
  relative viability: 0.734
[1]; first compound 2.53 µM
  relative viability: 0.72
[1]; first compound 8 µM
  relative viability: 0.787
Veliparib + Linsitinib; first compound 0.02 µM
  relative viability: 0.977
Veliparib + Linsitinib; first compound 0.06325 µM
  relative viability: 0.845
Veliparib + Linsitinib; first compound 0.2 µM
  relative viability: 0.819
Veliparib + Linsitinib; first compound 0.6325 µM
  relative viability: 0.767
Veliparib + Linsitinib; first compound 2 µM
  relative viability: 0.79
Veliparib + Dasatinib; first compound 0.06325 µM
  relative viability: 0.659
Veliparib + Dasatinib; first compound 0.2 µM
  relative viability: 0.38
Veliparib + Dasatinib; first compound 0.6325 µM
  relative viability: 0.391
Veliparib + Dasatinib; first compound 2 µM
  relative viability: 0.439
[2]; first compound 0.253 µM
  relative viability: 0.76
[2]; first compound 0.8 µM
  relative viability: 0.804
[2]; first compound 2.53 µM
  relative viability: 0.818
[2]; first compound 8 µM
  relative viability: 0.622
